The subject of the data set is dd mice. Description: Acute Toxicity. Type of data set: in vivo, mouse (male dd). Particulars: subcutaneous, 2000 mg/kg, five male dd mice.

With `Oc1cc(O)c2c(c1)O[C@H](c1ccc(O)c(O)c1)[C@H](O)[C@H]2c1c(O)cc(O)c2c1O[C@H](c1ccc(O)c(O)c1)[C@H](O)C2` [Compound 2, epicatechin-(4β→8)-epicatechin], the mortality entry is on record as “none of the mice died”.

The values are drawn from patent US6126940A, “Hair-growing agent comprised of proanthocyanidins” (Kyowa Hakko Kogyo Co., Ltd., priority 1994, dated 2000).
